Test results from patent US10487054B2, “Therapeutic compounds” (REGENTS OF THE UNIVERSITY OF MINNESOTA, priority 2017, dated 2019).

System: JB6 P+ cells
Assay: Western blot of SUV-induced TOPK downstream signaling
Type: cell-based, mouse
Experimental: The cells were cultured, treated for 4 h with different concentrations of compound 1 and then exposed to SUV (60 kJ UVA/m^2 and 2.9 kJ UVB/m^2), followed by an additional 15-minute incubation. Cells were harvested and the levels of phosphorylated and total proteins were determined by Western blot analysis with specific antibodies as indicated. […] The cells were cultured and treated with different concentrations of compound 1 for 24 h. Cells were harvested and the levels of phosphorylated and total proteins were determined by Western blot analysis with specific antibodies as indicated. […] For the luciferase assay, JB6 P+ cells stably transfected with an AP-1 luciferase reporter plasmid were cultured. […] Luciferase activity was measured and AP-1 activity is expressed relative to control cells without SUV treatment. […] Luciferase and 3-galactosidase activities were measured using reagents included in the reporter assay system (right). […] Significant differences were evaluated using one-way ANOVA and the asterisks (*) indicate a significant effect (*, p<0.05; **, p<0.001; ***, p<0.0001). […]
HaCaT or JB6 P+ cells (1×10^6) were cultured in 10-cm dishes for 24 h and then the medium was replaced with 0.1% FBS medium for 24 h. […] Protein concentration in cell lysates was determined using a protein assay kit (Bio-Rad Laboratories, Hercules, Calif.). […]

Compound: O=C1Nc2ccc(C34CC5CC(CC(C5)C3)C4)cc2C1=NO [compound 1, 5-(adamantan-1-yl)-3-(hydroxyimino)indolin-2-one]
- phosphorylated c-Jun protein levels (JB6 P+ cells exposed to SUV): significantly suppressed
- phosphorylation of ERK1/2, p38, and JNKs (JB6 P+ cells, 4 h treatment then SUV (60 kJ UVA/m2 and 2.9 kJ UVB/m2)): markedly suppressed
